# From US8791138B2, “Compositions and methods for alleviating depression or improving cognition” (Clera Inc., priority 2008, dated 2014)
# Experiments:
# [1] = target: T1, cloned dopamine D3 receptors (Homo sapiens, UniProt P35462); assay: Radioligand Kd at cloned dopamine D3 receptors; format: binding
# T1 construct: expressed in transfected cells
# [2] = tested on: depressive symptoms in acute exacerbations of schizophrenia; settings: amisulpride 400-800 mg/day, haloperidol 15-20 mg/day, risperidone 8 mg/day; Peuskens et al. 2002; cited from earlier work
# [3] = tested on: duration of immobility in the forced swimming test; settings: mice, Nakazawa et al. 2003, cited from earlier work
# [4] = tested on: dopamine behavioral supersensitivity; assay: Dopamine behavioral supersensitivity in animals; format: in vivo; settings: P. Seeman, Unpublished Results
# [5] = tested on: depression (Major Depressive Disorder); assay: Clinical observation of treatment-resistant depression patients, Hamilton Scale for Depression; format: in vivo, human
# From the text: All subjects were patients of a clinic for treatment-resistant depression at a tertiary hospital. Treatment-resistance was defined as a treatment failure on at least two other antidepressants prior to their referral to the clinic. Patients were deemed to be depressed by the referring psychiatrist as well as the treating psychiatrist according to DSM IV Criteria for Major Depressive Disorder.
# The higher the value, the more severe the depression.
# T1 sequence (P35462 whole entry): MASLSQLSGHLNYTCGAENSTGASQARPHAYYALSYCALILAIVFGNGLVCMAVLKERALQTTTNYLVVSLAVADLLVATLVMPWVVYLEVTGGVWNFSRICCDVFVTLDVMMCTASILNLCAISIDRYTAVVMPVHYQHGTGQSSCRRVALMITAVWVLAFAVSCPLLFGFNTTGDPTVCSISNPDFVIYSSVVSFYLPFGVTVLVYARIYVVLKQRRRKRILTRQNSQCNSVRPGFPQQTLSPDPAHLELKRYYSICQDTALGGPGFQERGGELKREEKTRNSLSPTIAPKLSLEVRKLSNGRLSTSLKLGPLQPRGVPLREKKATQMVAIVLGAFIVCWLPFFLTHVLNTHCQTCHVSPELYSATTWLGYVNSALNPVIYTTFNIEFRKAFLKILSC
smiles,measurement,setting,value
CCN1CCC[C@H]1CNC(=O)c1c(O)c(Cl)cc(Cl)c1OC (racemic) [[^3H]raclopride],Kd,[1],1.6 nM
CCN1CCCC1CNC(=O)c1cc(S(=O)(=O)CC)c(N)cc1OC (stereo not shown) [amisulpride],Brief Psychiatric Rating Scale (BPRS) anxiety/depression subscore,[2],5.6±6.1
O=c1cc(-c2ccc(O)cc2)oc2cc(O)cc(O)c12 [apigenin],duration of immobility in the forced swimming test,[3],significantly decreased
CNCCC(Oc1ccc(C(F)(F)F)cc1)c1ccccc1 (stereo not shown) [fluoxetine],dopamine behavioral supersensitivity in animals,[4],cause dopamine behavioral supersensitivity
O=C(CCCN1CCC(O)(c2ccc(Cl)cc2)CC1)c1ccc(F)cc1 [haloperidol],Rating after end of haloperidol (Hamilton depression scale),"[5]; Subject A, 5th week after starting medication, rating before 7-day regimen 14",9 (5th week)
same,Rating after end of haloperidol (Hamilton depression scale),"[5]; Subject B, 5th week after starting medication, rating before 7-day regimen 18",15 (5th week)
same,Rating after end of haloperidol (Hamilton depression scale),"[5]; Subject C, 5th week after starting medication, rating before 7-day regimen 30",12 (5th week)
same,Rating after end of haloperidol (Hamilton depression scale),"[5]; Subject D, 5th week after starting medication, rating before 7-day regimen 40",32 (5th week)
same,Rating after end of haloperidol (Hamilton depression scale),"[5]; Subject E, 4th week after starting medication, rating before 7-day regimen 23",7 (4th week)
same,Rating after end of haloperidol (Hamilton depression scale),"[5]; Subject F, 5th week after starting medication, rating before 7-day regimen 20",4 (5th week)
same,Rating after end of haloperidol (Hamilton depression scale),"[5]; Subject G, 5th week after starting medication, rating before 7-day regimen 24",13 (5th week)
same,severity of the depression after the 7-day treatment regimen,"[5]; all patients, oral 0.2-0.3 mg/day graded for 7 days",decreased
same,Brief Psychiatric Rating Scale (BPRS) anxiety/depression subscore,[2],4.4±5.5
same,effect on apigenin-induced decrease in immobility in the forced swimming test,[3]; haloperidol 0.2 mg/kg,blocked
CN(C)CCCN1c2ccccc2CCc2ccccc21 [imipramine],dopamine behavioral supersensitivity in animals,[4],cause dopamine behavioral supersensitivity
Cc1nc2n(c(=O)c1CCN1CCC(c3noc4cc(F)ccc34)CC1)CCCC2 [risperidone],Brief Psychiatric Rating Scale (BPRS) anxiety/depression subscore,[2],3.7±4.7
